One test deals with LXR β LBD protein (Homo sapiens (Human), UniProt P55055). Put plainly: biochemical. The format is biochemical. As for the experimental part: Two μL of the DMSO solutions were transferred to the plate and 38 μL of 10 nM LXRα-LBD or LXRβ-LBD (2×) were added immediately to the wells. The plate was shaken for 5 min at rt on an orbital micro shaker (DPC MicroMix® 5), after which 40 μL of 200 nM fluorescein-SRC2-3 peptide and 20 nM Terbium-anti-GST-antibody (Cat# PV3550, Life Technologies, Grand Island, N.Y.) solution (4×) were added to all. The plate was sealed and shaken for 2 min at rt, and incubated at rt for 2 h without agitation. […] The delay and window times were set at 100 and 200 microseconds, respectively. […] The percent control vs. compound concentration data were fit into a four-parameter model, and EC50 values were calculated from the fit as the concentrations corresponding to the inflection points on the concentration-response curves.

Test [1] concerns the target Gal4 DNA binding domain fused to the LBD of LXRα in HEK293 cells (Homo sapiens (Human), UniProt Q13133). Kind of test: LXR luciferase transcriptional reporter gene assay, agonist mode, LXRα. Type of test: cell-based. The note with it: for EC50: read-out: Cell LXRα EC50. In general terms: In a reporter assay the amount or activity of a reporter protein is the signal.
The next test concerns the target LXR α LBD protein (Homo sapiens (Human), UniProt Q13133). Kind of test: Human LXRα coactivator recruitment FRET assay, agonist mode. The format is biochemical. The gist of the method: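 Time-resolved FRET (delay 100 µs, window 200 µs) after 2 h rt incubation of compound with 10 nM (2×) GST-tagged LXRα or LXRβ LBD plus 200 nM fluorescein-SRC2-3 and 20 nM Tb-anti-GST (4×). Percent control vs concentration fit to four-parameter model; EC50 at inflection.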

The target in test [2] is Gal4 DNA binding domain fused to the LBD of LXRβ in HEK293 cells (Homo sapiens (Human), UniProt P55055). Kind of test: cell-based.
Where [3] appears, read: agonist mode, read-out: FRET LXRβ EC50.
Setting [4] is: agonist mode, read-out: Cell LXRβ EC50.
[5] abbreviates: Biological Test Example 3, agonist mode.
Where [6] appears, read: Biological Test Example 2, agonist mode.

Like-named read-outs stand apart in the source and are kept apart here.

From patent US10144715B2, “Piperazine derivatives as liver X receptor modulators” (priority 2014, dated 2018) come the findings set out here.

LXR α LBD protein, sequence (Q13133 209-447): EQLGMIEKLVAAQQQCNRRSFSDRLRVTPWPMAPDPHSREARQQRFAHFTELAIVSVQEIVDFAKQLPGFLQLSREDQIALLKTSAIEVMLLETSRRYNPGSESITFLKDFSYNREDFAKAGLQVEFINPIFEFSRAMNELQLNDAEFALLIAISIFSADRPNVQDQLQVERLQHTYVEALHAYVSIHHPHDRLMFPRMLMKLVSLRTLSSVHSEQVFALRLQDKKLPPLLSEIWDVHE
Gal4 DNA binding domain fused to the LBD of LXRα in HEK293 cells, sequence (Q13133 209-447): as above
LXR β LBD protein, sequence (P55055 222-460): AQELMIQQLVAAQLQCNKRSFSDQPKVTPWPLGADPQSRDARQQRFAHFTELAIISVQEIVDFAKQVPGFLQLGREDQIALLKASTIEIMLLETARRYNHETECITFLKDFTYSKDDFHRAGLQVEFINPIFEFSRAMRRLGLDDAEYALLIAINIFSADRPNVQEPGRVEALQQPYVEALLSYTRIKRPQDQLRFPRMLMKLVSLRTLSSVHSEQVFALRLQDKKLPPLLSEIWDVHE
Gal4 DNA binding domain fused to the LBD of LXRβ in HEK293 cells, sequence (P55055 222-460 limits assumed): as the sequence (P55055 222-460) above

In general, EC50 refers to the concentration that produces a half-maximal response. As for `CS(=O)(=O)c1cccc(N2CCN(Cc3ccc(C(F)(F)F)nc3)[C@H](c3ccccc3Cl)C2)c1` (single isomer, unassigned) [46-56], the “FRET LXRβ efficacy” value on LXR β LBD protein is 2252 (40) %. The concentration for a half-maximal effect (EC50) was 2.25 µM on LXR β LBD protein (read-out: FRET LXRβ EC50), over 20 µM in test [1], 27 µM at LXR α LBD protein (agonist mode) and over 20 µM in test [2]. In addition, the “FRET LXRα efficacy” value at LXR α LBD protein (agonist mode) stood at 47%.
Regarding `CC(C)[C@H]1CC[C@H](CN2CCN(c3cccc(S(C)(=O)=O)c3)C[C@H]2c2ccccc2)CC1` (single isomer, unassigned) [48-14], the “FRET LXRβ efficacy” value on LXR β LBD protein (agonist mode) is reported as 67%. In addition, the 50% effective concentration (EC50) at LXR β LBD protein (setting [3]) is 12.3 µM; in test [1], over 20 µM; on LXR α LBD protein (agonist mode), over 50 µM; in test [2] (setting [4]) it was over 20 µM.
As for `CS(=O)(=O)c1cccc(N2CCN(C[C@H]3CC[C@H](C(F)(F)F)CC3)[C@H](c3ccccc3)C2)c1` (single isomer, unassigned) [48-32], the “FRET LXRβ efficacy” value on LXR β LBD protein (agonist mode) stood at 97%. In addition, the EC50 at LXR β LBD protein (setting [3]) stood at 3.8 µM; in test [1], 19 µM; on LXR α LBD protein (agonist mode), 15.3 µM; in test [2] (setting [4]), 3.34 µM. For the same compound, the “Cell LXRα efficacy” value in test [1] was 19000 (4) %. Further, at LXR α LBD protein (agonist mode), the “FRET LXRα efficacy” value stood at 59%. For the same compound, in test [2] (agonist mode), the “Cell LXRβ efficacy” value worked out at 15%.
In the case of `NS(=O)(=O)c1cccc(N2CCN(C[C@H]3CC[C@@H](C(F)(F)F)CC3)[C@H](c3ccccc3)C2)c1` (single isomer, unassigned) [48-34], the “FRET LXRβ efficacy” value on LXR β LBD protein (agonist mode) came to 39%. Further, the concentration giving a half-maximal response (EC50) at LXR β LBD protein (setting [3]) was found to be 0.704 µM; in test [1], 9.86 µM; at LXR α LBD protein (agonist mode), 2.31 µM; in test [2] (setting [4]), 3.82 µM. For the same compound, the “Cell LXRα efficacy” value in test [1] is recorded as 9858 (48) %. Also, the “FRET LXRα efficacy” value on LXR α LBD protein (agonist mode) came out at 25%. Further, the “Cell LXRβ efficacy” value in test [2] (agonist mode) was 32%.
As for `NS(=O)(=O)c1cccc(N2CCN(C[C@H]3CC[C@H](C(F)(F)F)CC3)[C@H](c3ccccc3)C2)c1` (single isomer, unassigned) [48-36], at LXR β LBD protein (agonist mode), the “FRET LXRβ efficacy” value turned out to be 25%. For the same compound, the EC50 at LXR β LBD protein (setting [3]) is 16.4 µM; in test [1], over 20 µM; on LXR α LBD protein (agonist mode) it was over 50 µM; in test [2] (setting [4]), over 20 µM.
Regarding `NS(=O)(=O)c1cccc(N2CCN(C[C@H]3CC[C@H](C(F)(F)F)CC3)[C@@H](c3ccccc3)C2)c1` (single isomer, unassigned) [48-37], the “FRET LXRβ efficacy” value at LXR β LBD protein (agonist mode) turned out to be 30%. Besides, the concentration giving a half-maximal response (EC50) on LXR β LBD protein (setting [3]) is 1.29 µM; in test [1] it was 2.83 µM; on LXR α LBD protein (agonist mode) it was 2.35 µM; in test [2] (setting [4]), 1.18 µM. Also, the “Cell LXRα efficacy” value in test [1] is 2829 (39) %. Further, at LXR α LBD protein (agonist mode), the “FRET LXRα efficacy” value is reported as 33%. The “Cell LXRβ efficacy” value in test [2] (agonist mode) is on record as 19%.
`CS(=O)(=O)c1cccc(N2CCN(C[C@H]3CCN(CC(F)(F)F)C3)[C@H](c3ccccc3)C2)c1` (single isomer, unassigned) [48-60]: the concentration giving a half-maximal response (EC50) on LXR β LBD protein worked out at 1.03 µM; in test [1] (setting [6]), 18.6 µM; at LXR α LBD protein (setting [5]), 16.1 µM; in test [2], 6.83 µM. In addition, on LXR β LBD protein (setting [5]), the “FRET LXRβ efficacy” value is 1032 (33) %. In test [1], the “Cell LXRα efficacy” value is given as 18622 (13) %. Also, the “FRET LXRα efficacy” value at LXR α LBD protein (setting [5]) amounted to 27%. Further, the “Cell LXRβ efficacy” value in test [2] (setting [6]) is listed as 6832 (7) %.
Turning to `CS(=O)(=O)c1cccc(N2CCN(C[C@@H]3CCN(CC(F)(F)F)C3)[C@H](c3ccccc3)C2)c1` (single isomer, unassigned) [48-62], the EC50 on LXR β LBD protein was 2.1 µM; in test [1] (setting [6]), over 20 µM; at LXR α LBD protein (setting [5]), 9.98 µM; in test [2] it was 4.68 µM. For the same compound, the “FRET LXRα efficacy” value at LXR α LBD protein (setting [5]) is 39%. Further, the “Cell LXRβ efficacy” value in test [2] (setting [6]) is 4682 (8) %.
On to `CS(=O)(=O)c1cc(N2CCN(C[C@H]3CC[C@H](C(F)(F)F)CC3)[C@H](c3ccccc3)C2)ccc1C#N` (single isomer, unassigned) [50-3], for which the “FRET LXRβ efficacy” value on LXR β LBD protein (setting [5]) worked out at 52%. For the same compound, the 50% effective concentration (EC50) at LXR β LBD protein (Biological Test Example 3, agonist mode, read-out: FRET LXRβ EC50) was 1.66 µM; in test [1], over 20 µM; on LXR α LBD protein (setting [5]), 12.9 µM; in test [2] (Biological Test Example 2, agonist mode, read-out: Cell LXRβ EC50), over 20 µM. Further, on LXR α LBD protein (setting [5]), the “FRET LXRα efficacy” value came out at 71%.
